Laboratory results taken from the kinase profiling compilation of Christmann-Franck et al. (2016).

Experiments:
Test in all cases: radiometric filter-binding kinase assay, Kinase HotSpot
Conditions in all cases: compound 0.5 µM; ATP 10 µM
ADRBK1 (human) = ADRBK1 (human) (UniProt P25098)
DDR2 (human) = DDR2 (human) (UniProt Q16832)
MAP3K2 (human) = MAP3K2 (human) (UniProt Q9Y2U5)
FRK (human) = FRK (human) (UniProt P42685)
CLK1 (human) = CLK1 (human) (UniProt P49759)
MKNK2 (human) = MKNK2 (human) (UniProt Q9HBH9)
KDR (human) = KDR (human) (UniProt P35968)
INSRR (human) = INSRR (human) (UniProt P14616)
NEK7 (human) = NEK7 (human) (UniProt Q8TDX7)
STK11 (human) = STK11 (human) (UniProt Q15831)
FGFR1 (human) = FGFR1 (human) (UniProt P11362)
PRKCH (human) = PRKCH (human) (UniProt P24723)
ACVR1B (human) = ACVR1B (human) (UniProt P36896)
PTK6 (human) = PTK6 (human) (UniProt Q13882)
NEK1 (human) = NEK1 (human) (UniProt Q96PY6)
PRKACA (human) = PRKACA (human) (UniProt P17612)
PTK2 (human) = PTK2 (human) (UniProt Q05397)
PHKG1 (human) = PHKG1 (human) (UniProt Q16816)
LIMK1 (human) = LIMK1 (human) (UniProt P53667)
Sequence of LIMK1 (human) (P53667 whole entry, looked up): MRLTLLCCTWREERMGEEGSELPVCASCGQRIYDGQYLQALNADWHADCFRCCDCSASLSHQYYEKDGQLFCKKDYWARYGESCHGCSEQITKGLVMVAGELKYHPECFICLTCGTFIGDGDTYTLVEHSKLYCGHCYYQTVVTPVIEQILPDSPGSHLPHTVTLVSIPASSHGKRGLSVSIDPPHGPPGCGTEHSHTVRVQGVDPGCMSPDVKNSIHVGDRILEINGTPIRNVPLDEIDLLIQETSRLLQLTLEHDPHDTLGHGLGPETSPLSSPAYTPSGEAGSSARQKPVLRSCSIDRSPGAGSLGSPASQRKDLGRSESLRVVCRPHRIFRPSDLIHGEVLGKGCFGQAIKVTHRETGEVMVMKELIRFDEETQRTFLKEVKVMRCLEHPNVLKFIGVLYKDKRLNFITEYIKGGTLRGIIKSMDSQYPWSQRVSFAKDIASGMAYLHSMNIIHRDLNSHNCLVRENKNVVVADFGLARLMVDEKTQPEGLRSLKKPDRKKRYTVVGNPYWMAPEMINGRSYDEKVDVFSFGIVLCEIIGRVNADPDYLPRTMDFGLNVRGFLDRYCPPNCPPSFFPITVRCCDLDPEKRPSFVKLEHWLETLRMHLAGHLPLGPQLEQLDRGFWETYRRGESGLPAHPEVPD

CDK1 CCNA2 (human) = CDK1 CCNA2 (human) (UniProt P06493+P20248)
MYLK2 (human) = MYLK2 (human) (UniProt Q9H1R3)
RPS6KA2 KD1 KD2 (human) = RPS6KA2 KD1 KD2 (human) (UniProt Q15349)
Sequence of RPS6KA2 KD1 KD2 (human) (Q15349 whole entry, looked up): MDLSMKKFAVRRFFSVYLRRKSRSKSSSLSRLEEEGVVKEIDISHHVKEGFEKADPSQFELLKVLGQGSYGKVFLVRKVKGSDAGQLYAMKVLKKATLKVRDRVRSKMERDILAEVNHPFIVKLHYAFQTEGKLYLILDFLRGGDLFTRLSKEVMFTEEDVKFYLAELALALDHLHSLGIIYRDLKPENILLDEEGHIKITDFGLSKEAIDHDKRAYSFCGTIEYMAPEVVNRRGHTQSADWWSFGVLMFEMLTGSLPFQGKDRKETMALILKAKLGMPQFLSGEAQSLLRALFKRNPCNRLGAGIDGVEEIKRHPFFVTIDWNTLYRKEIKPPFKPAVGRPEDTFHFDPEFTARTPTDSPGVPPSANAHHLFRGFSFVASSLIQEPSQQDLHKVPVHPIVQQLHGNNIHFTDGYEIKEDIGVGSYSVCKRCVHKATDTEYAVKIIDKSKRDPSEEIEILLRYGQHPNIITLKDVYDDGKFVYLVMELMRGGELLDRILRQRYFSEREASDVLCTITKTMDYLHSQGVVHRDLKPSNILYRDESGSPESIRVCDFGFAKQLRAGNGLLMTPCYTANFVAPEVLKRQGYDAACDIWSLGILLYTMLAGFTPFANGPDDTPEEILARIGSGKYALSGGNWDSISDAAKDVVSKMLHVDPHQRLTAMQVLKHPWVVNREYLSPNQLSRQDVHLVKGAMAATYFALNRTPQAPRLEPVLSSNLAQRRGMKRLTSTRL

CAMKK2 (human) = CAMKK2 (human) (UniProt Q96RR4)
SRPK1 (human) = SRPK1 (human) (UniProt Q96SB4)
Sequence of SRPK1 (human) (Q96SB4 whole entry, looked up): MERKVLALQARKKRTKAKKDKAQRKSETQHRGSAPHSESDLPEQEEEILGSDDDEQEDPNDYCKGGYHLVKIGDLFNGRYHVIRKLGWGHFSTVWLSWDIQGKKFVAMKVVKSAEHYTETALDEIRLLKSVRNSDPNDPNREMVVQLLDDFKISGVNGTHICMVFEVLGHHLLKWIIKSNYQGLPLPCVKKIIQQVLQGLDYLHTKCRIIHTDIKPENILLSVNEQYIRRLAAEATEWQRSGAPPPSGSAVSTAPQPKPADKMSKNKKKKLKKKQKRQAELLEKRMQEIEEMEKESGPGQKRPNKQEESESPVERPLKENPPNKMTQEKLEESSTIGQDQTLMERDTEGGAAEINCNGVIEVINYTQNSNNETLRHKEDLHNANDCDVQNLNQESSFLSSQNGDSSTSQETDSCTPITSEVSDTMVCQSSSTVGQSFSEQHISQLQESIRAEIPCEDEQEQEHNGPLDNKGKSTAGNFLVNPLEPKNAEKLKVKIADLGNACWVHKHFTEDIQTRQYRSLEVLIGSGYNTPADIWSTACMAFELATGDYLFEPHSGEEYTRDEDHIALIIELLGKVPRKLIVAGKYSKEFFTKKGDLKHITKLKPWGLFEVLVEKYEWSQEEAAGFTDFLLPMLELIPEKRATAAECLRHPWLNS

DMPK (human) = DMPK (human) (UniProt Q09013)
PAK7 (human) = PAK7 (human) (UniProt Q9P286)
PRKCB2 (human) = PRKCB2 (human) (UniProt P05771)
PRKCE (human) = PRKCE (human) (UniProt Q02156)
Sequence of PRKCE (human) (Q02156 whole entry, looked up): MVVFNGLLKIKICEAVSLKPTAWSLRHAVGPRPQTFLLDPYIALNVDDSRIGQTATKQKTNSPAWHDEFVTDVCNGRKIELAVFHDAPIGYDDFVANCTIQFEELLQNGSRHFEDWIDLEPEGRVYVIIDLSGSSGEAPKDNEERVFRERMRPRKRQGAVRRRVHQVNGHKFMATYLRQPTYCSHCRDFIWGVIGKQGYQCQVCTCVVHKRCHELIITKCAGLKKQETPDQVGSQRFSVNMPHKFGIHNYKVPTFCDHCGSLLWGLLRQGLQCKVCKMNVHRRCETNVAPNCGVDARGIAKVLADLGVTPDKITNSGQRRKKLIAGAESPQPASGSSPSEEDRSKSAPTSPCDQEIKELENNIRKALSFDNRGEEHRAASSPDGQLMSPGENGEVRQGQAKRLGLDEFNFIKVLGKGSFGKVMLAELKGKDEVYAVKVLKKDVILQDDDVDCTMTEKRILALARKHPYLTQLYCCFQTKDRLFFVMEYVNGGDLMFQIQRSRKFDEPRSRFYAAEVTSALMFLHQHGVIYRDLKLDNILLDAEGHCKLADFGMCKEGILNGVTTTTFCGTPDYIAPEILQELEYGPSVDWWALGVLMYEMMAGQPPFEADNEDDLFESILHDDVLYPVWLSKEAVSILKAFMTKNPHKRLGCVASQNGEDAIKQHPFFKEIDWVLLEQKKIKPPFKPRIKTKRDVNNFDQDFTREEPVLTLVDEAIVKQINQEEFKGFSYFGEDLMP

CAMK1 (human) = CAMK1 (human) (UniProt Q14012)
GSK3A (human) = GSK3A (human) (UniProt P49840)
CDK5 CDK5R1 p25 (human) = CDK5 CDK5R1 p25 (human) (UniProt Q00535+Q15078)
CSNK1E (human) = CSNK1E (human) (UniProt P49674)
PKN2 (human) = PKN2 (human) (UniProt Q16513)
MAPK13 (human) = MAPK13 (human) (UniProt O15264)
DYRK3 (human) = DYRK3 (human) (UniProt O43781)
ERBB2 (human) = ERBB2 (human) (UniProt P04626)
Sequence of ERBB2 (human) (P04626 whole entry, looked up): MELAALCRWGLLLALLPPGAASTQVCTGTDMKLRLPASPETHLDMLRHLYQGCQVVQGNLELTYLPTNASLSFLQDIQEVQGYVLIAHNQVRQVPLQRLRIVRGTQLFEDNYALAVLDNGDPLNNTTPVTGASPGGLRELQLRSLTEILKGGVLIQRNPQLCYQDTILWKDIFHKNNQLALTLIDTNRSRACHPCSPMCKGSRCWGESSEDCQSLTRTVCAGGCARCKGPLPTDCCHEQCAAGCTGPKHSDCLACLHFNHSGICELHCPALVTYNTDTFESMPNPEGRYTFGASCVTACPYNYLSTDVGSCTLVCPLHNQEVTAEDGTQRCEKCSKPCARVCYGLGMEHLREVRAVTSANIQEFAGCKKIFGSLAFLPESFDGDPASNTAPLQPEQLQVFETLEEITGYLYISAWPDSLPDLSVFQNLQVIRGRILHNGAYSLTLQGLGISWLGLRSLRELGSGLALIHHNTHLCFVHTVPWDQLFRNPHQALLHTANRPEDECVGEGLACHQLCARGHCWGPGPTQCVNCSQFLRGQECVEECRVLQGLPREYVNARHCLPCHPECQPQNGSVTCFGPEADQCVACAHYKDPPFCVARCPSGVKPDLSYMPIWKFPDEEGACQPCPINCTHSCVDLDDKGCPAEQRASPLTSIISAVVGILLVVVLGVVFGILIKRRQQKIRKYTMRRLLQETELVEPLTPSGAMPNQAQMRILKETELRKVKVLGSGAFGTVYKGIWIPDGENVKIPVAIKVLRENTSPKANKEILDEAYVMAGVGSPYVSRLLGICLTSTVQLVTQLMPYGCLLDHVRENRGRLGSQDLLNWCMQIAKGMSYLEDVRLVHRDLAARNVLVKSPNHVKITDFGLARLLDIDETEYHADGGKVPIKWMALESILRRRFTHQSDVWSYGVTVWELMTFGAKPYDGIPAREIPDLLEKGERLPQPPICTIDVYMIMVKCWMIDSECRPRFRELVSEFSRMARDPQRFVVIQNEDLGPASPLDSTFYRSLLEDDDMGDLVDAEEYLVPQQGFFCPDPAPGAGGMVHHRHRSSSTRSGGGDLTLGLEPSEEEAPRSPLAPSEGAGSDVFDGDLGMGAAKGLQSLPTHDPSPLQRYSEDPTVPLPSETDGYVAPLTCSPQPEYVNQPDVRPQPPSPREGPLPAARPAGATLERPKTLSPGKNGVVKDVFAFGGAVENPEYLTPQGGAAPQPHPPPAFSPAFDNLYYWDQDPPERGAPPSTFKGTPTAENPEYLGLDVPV

STK17A (human) = STK17A (human) (UniProt Q9UEE5)
DYRK1A (human) = DYRK1A (human) (UniProt Q13627)
RPS6KA6 KD1 KD2 (human) = RPS6KA6 KD1 KD2 (human) (UniProt Q9UK32)
PHKG2 (human) = PHKG2 (human) (UniProt P15735)
BRSK1 (human) = BRSK1 (human) (UniProt Q8TDC3)
PAK1 (human) = PAK1 (human) (UniProt Q13153)
Sequence of PAK1 (human) (Q13153 whole entry, looked up): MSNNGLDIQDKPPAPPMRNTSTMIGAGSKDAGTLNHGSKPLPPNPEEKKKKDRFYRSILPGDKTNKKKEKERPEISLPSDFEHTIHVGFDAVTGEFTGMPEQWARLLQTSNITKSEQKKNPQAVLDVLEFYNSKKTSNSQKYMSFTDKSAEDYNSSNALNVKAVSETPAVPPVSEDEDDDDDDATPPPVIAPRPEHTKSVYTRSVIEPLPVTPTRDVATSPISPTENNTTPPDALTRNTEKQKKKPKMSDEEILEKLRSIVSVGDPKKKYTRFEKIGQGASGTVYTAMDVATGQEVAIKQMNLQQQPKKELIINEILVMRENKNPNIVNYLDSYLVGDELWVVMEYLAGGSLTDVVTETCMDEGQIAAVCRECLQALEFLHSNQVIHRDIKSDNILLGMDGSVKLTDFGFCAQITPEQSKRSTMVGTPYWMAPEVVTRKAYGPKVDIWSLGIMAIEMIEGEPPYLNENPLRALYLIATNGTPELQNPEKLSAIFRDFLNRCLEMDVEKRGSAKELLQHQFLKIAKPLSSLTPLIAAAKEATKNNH

Sequence of CLK1 (human) (P49759 whole entry, looked up): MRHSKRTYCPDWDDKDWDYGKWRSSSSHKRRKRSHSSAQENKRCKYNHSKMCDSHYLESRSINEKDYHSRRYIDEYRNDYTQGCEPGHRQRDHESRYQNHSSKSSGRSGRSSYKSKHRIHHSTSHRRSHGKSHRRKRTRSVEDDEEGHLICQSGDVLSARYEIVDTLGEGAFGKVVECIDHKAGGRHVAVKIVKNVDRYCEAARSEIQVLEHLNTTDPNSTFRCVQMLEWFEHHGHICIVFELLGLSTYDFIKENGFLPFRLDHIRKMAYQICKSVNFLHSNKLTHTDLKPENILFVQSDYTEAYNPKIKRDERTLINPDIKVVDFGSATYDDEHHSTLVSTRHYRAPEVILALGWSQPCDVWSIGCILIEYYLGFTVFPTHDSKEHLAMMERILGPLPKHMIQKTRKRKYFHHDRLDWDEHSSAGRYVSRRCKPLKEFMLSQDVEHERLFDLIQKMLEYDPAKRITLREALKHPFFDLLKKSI

Work on CC(=O)c1ccc(N2CCOCC2)cc1O yielded a residual activity (ADRBK1 (human)) of 99%, a residual activity (DDR2 (human)) of 104% and a residual activity (MAP3K2 (human)) of 109%. It also gave a residual activity (FRK (human)) of 91.6%, a residual activity (CLK1 (human)) of 110% and a residual activity (MKNK2 (human)) of 90.7%. The residual activity (KDR (human)) was 97.7%, the residual activity (INSRR (human)) was 96.7% and the residual activity (NEK7 (human)) was 101%. The residual activity (STK11 (human)) was 103%, the residual activity (FGFR1 (human)) was 91.4% and the residual activity (PRKCH (human)) was 99.3%. It also gave a residual activity (ACVR1B (human)) of 100%, a residual activity (PTK6 (human)) of 104% and a residual activity (NEK1 (human)) of 114%. For the same molecule, the residual activity (PRKACA (human)) was 102%, the residual activity (PTK2 (human)) was 107% and the residual activity (PHKG1 (human)) was 96.5%. For the same molecule, the residual activity (LIMK1 (human)) was 93.6%, the residual activity (CDK1 CCNA2 (human)) was 99.8% and the residual activity (MYLK2 (human)) was 98.6%. It also gave a residual activity (RPS6KA2 KD1 KD2 (human)) of 98.6%, a residual activity (CAMKK2 (human)) of 115% and a residual activity (SRPK1 (human)) of 90.7%. It also gave a residual activity (DMPK (human)) of 105%, a residual activity (PAK7 (human)) of 102% and a residual activity (PRKCB2 (human)) of 97.9%. It also gave a residual activity (PRKCE (human)) of 93.4%, a residual activity (CAMK1 (human)) of 102% and a residual activity (GSK3A (human)) of 101%. For the same molecule, the residual activity (CDK5 CDK5R1 p25 (human)) was 99.7%, the residual activity (CSNK1E (human)) was 96.2% and the residual activity (PKN2 (human)) was 94.8%. It also gave a residual activity (MAPK13 (human)) of 104%, a residual activity (DYRK3 (human)) of 93.9% and a residual activity (ERBB2 (human)) of 98.2%. For the same molecule, the residual activity (STK17A (human)) was 95.9%, the residual activity (DYRK1A (human)) was 98% and the residual activity (RPS6KA6 KD1 KD2 (human)) was 95.1%. The residual activity (PHKG2 (human)) was 98.1%, the residual activity (BRSK1 (human)) was 97.6% and the residual activity (PAK1 (human)) was 93.7%.

Molecule O=C1Nc2ccc(Cl)cc2/C1=C/c1cc(Cl)c(O)c(Cl)c1 has a residual activity (ADRBK1 (human)) of 93.4%, a residual activity (DDR2 (human)) of 85.8% and a residual activity (MAP3K2 (human)) of 95.7%. It also gave a residual activity (FRK (human)) of 70.3%, a residual activity (CLK1 (human)) of 85% and a residual activity (MKNK2 (human)) of 88.7%. For the same molecule, the residual activity (KDR (human)) was 86.1%, the residual activity (INSRR (human)) was 100% and the residual activity (NEK7 (human)) was 100%. The residual activity (STK11 (human)) was 93.1%, the residual activity (FGFR1 (human)) was 90.8% and the residual activity (PRKCH (human)) was 90.8%. The residual activity (ACVR1B (human)) was 127%, the residual activity (PTK6 (human)) was 73.8% and the residual activity (NEK1 (human)) was 81.5%. For the same molecule, the residual activity (PRKACA (human)) was 101%, the residual activity (PTK2 (human)) was 91.5% and the residual activity (PHKG1 (human)) was 86.4%. For the same molecule, the residual activity (LIMK1 (human)) was 83.7%, the residual activity (CDK1 CCNA2 (human)) was 91.9% and the residual activity (MYLK2 (human)) was 71.5%. For the same molecule, the residual activity (RPS6KA2 KD1 KD2 (human)) was 71.9%, the residual activity (CAMKK2 (human)) was 51.5% and the residual activity (SRPK1 (human)) was 106%. For the same molecule, the residual activity (DMPK (human)) was 112%, the residual activity (PAK7 (human)) was 91.5% and the residual activity (PRKCB2 (human)) was 97.5%. The residual activity (PRKCE (human)) was 100%, the residual activity (CAMK1 (human)) was 94.9% and the residual activity (GSK3A (human)) was 76.1%. It also gave a residual activity (CDK5 CDK5R1 p25 (human)) of 82.6%, a residual activity (CSNK1E (human)) of 66.6% and a residual activity (PKN2 (human)) of 114%. It also gave a residual activity (MAPK13 (human)) of 97.8%, a residual activity (DYRK3 (human)) of 91.8% and a residual activity (ERBB2 (human)) of 107%. The residual activity (STK17A (human)) was 78.9%, the residual activity (DYRK1A (human)) was 95.6% and the residual activity (RPS6KA6 KD1 KD2 (human)) was 78.5%. It also gave a residual activity (PHKG2 (human)) of 98.4%, a residual activity (BRSK1 (human)) of 81.3% and a residual activity (PAK1 (human)) of 97.2%.

Molecule CNc1cc2c(Nc3cccc(Br)c3)ncnc2cn1 has a residual activity (ADRBK1 (human)) of 97%, a residual activity (DDR2 (human)) of 100% and a residual activity (MAP3K2 (human)) of 74.9%. The residual activity (FRK (human)) was 91.2%, the residual activity (CLK1 (human)) was 106% and the residual activity (MKNK2 (human)) was 32.3%. For the same molecule, the residual activity (KDR (human)) was 77.6%, the residual activity (INSRR (human)) was 98.2% and the residual activity (NEK7 (human)) was 90.4%. The residual activity (STK11 (human)) was 98.3%, the residual activity (FGFR1 (human)) was 96.5% and the residual activity (PRKCH (human)) was 95.7%. For the same molecule, the residual activity (ACVR1B (human)) was 97.7%, the residual activity (PTK6 (human)) was 54.4% and the residual activity (NEK1 (human)) was 70.3%. The residual activity (PRKACA (human)) was 104%, the residual activity (PTK2 (human)) was 90.2% and the residual activity (PHKG1 (human)) was 91.4%. It also gave a residual activity (LIMK1 (human)) of 95.9%, a residual activity (CDK1 CCNA2 (human)) of 86.5% and a residual activity (MYLK2 (human)) of 97.3%. It also gave a residual activity (RPS6KA2 KD1 KD2 (human)) of 83.5%, a residual activity (CAMKK2 (human)) of 80% and a residual activity (SRPK1 (human)) of 90.7%. The residual activity (DMPK (human)) was 112%, the residual activity (PAK7 (human)) was 90.8% and the residual activity (PRKCB2 (human)) was 102%. For the same molecule, the residual activity (PRKCE (human)) was 99.8%, the residual activity (CAMK1 (human)) was 92.3% and the residual activity (GSK3A (human)) was 95.9%. The residual activity (CDK5 CDK5R1 p25 (human)) was 82.9%, the residual activity (CSNK1E (human)) was 84.8% and the residual activity (PKN2 (human)) was 102%. For the same molecule, the residual activity (MAPK13 (human)) was 102%, the residual activity (DYRK3 (human)) was 84.4% and the residual activity (ERBB2 (human)) was 28.9%. For the same molecule, the residual activity (STK17A (human)) was 98.4%, the residual activity (DYRK1A (human)) was 95.6% and the residual activity (RPS6KA6 KD1 KD2 (human)) was 81.8%. For the same molecule, the residual activity (PHKG2 (human)) was 113%, the residual activity (BRSK1 (human)) was 91.2% and the residual activity (PAK1 (human)) was 94.9%.

CCOC(=O)c1c(C)[nH]c(/C=C2\C(=O)Nc3ccccc32)c1C was tested, and the residual activity (ADRBK1 (human)) was 98.2%, the residual activity (DDR2 (human)) was 98% and the residual activity (MAP3K2 (human)) was 108%. The residual activity (FRK (human)) was 95.3%, the residual activity (CLK1 (human)) was 98.2% and the residual activity (MKNK2 (human)) was 87.4%. For the same molecule, the residual activity (KDR (human)) was 93.2%, the residual activity (INSRR (human)) was 93.8% and the residual activity (NEK7 (human)) was 102%. It also gave a residual activity (STK11 (human)) of 85.2%, a residual activity (FGFR1 (human)) of 78.6% and a residual activity (PRKCH (human)) of 94%. For the same molecule, the residual activity (ACVR1B (human)) was 96.6%, the residual activity (PTK6 (human)) was 82.8% and the residual activity (NEK1 (human)) was 92.5%. The residual activity (PRKACA (human)) was 97.3%, the residual activity (PTK2 (human)) was 93% and the residual activity (PHKG1 (human)) was 73.3%. The residual activity (LIMK1 (human)) was 81.3%, the residual activity (CDK1 CCNA2 (human)) was 96.3% and the residual activity (MYLK2 (human)) was 74.7%. The residual activity (RPS6KA2 KD1 KD2 (human)) was 71.4%, the residual activity (CAMKK2 (human)) was 90.8% and the residual activity (SRPK1 (human)) was 95.4%. It also gave a residual activity (DMPK (human)) of 101%, a residual activity (PAK7 (human)) of 83.9% and a residual activity (PRKCB2 (human)) of 91.5%. For the same molecule, the residual activity (PRKCE (human)) was 98.2%, the residual activity (CAMK1 (human)) was 98.1% and the residual activity (GSK3A (human)) was 93.5%. For the same molecule, the residual activity (CDK5 CDK5R1 p25 (human)) was 92.7%, the residual activity (CSNK1E (human)) was 73.7% and the residual activity (PKN2 (human)) was 92%. For the same molecule, the residual activity (MAPK13 (human)) was 98.3%, the residual activity (DYRK3 (human)) was 102% and the residual activity (ERBB2 (human)) was 101%. It also gave a residual activity (STK17A (human)) of 81.4%, a residual activity (DYRK1A (human)) of 95.7% and a residual activity (RPS6KA6 KD1 KD2 (human)) of 87.6%. The residual activity (PHKG2 (human)) was 96.2%, the residual activity (BRSK1 (human)) was 92.6% and the residual activity (PAK1 (human)) was 99.9%.
